For series [1], the target named is T1, Cytochrome P450 2D6 (Homo sapiens, UniProt P10635).
The test system of series [2] is HEK293. Put plainly: cells. Particulars: Homo sapiens.
Series [3] deals with HEK293. Put plainly: cells. Particulars: Homo sapiens. The source holds these as a separate data set.
Series [4] concerns the target T2, Cytochrome P450 1A2 (Homo sapiens, UniProt P05177).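 Note: PubChem cytochrome P450 panel assay, CYP1A2 panel member.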
T2 sequence (P05177 whole entry): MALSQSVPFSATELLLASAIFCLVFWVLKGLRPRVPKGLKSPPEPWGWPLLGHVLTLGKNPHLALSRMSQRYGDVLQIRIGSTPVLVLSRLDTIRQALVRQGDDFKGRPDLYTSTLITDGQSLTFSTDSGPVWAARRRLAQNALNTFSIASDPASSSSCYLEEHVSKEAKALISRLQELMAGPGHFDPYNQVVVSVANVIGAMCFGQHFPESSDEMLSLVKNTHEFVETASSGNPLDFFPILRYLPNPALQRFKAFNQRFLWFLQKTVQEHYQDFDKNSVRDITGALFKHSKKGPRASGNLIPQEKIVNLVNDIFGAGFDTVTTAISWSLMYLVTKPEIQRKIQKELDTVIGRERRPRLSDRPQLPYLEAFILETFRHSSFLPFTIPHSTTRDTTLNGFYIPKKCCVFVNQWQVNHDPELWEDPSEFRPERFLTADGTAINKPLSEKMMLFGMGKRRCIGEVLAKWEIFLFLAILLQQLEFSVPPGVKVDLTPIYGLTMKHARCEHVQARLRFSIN

Series [5] addresses Cytochrome P450 2C9 (Homo sapiens, UniProt P11712).
A short description of series [6]: Luminescence Cell-Based Dose Retest to Confirm Inhibitors of Cancer Stem Cells. [Related pubchem assays (depositor defined):AID2717, AID2721]. In kind it is functional. Particulars: Homo sapiens.
A short description of series [7]: cytotoxicity in HMLE control line with eGFP shRNA, dose response, counter-screen for HMLE_sh_ECad selective toxicity project, cell-based, HMLE_sh_eGFP, luminescence (AID 463074).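 Note: HMLE human mammary epithelial cells expressing control shRNA against eGFP.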 The format is functional, Homo sapiens. On the technique in general: The purpose of a counterscreen is to sort out artefacts and off-target activity.
The subject of series [8] is HEK293. Put plainly: NOD1 signaling inhibitors, primary screen, cell-based, luminescence, uHTS (AID 1578). In kind it is functional. Particulars: Homo sapiens.
Series [9] relates to HEK293. Put plainly: cells. The format is functional, cell-based. As to conditions: Homo sapiens.
For series [10], the system named is HEK293. The experiment in a line: cells. In kind it is functional, cell-based. Particulars: Homo sapiens. This is another data set of the same source.
Series [11] deals with HEK293. Put plainly: NOD2 signaling inhibitors in MDP-stimulated cells, cell-based, uHTS, luminescence (AID 2001). The format is functional. Particulars: Homo sapiens.
The test system of series [12] is HEK293. The experiment in a line: cells. In kind it is functional, cell-based. As to conditions: Homo sapiens. The source holds these as a separate data set.
Series [13] concerns HEK293. The experiment in a line: cells. As to conditions: Homo sapiens. This is another data set of the same source.
Series [14] addresses Intestinal-type alkaline phosphatase (Mus musculus, UniProt P24822). The experiment in a line: PubChem AID 488874. The format is functional.
Series [15] has as its target T3, Intestinal-type alkaline phosphatase (Homo sapiens, UniProt P09923). Put plainly: human intestinal alkaline phosphatase activators, dose response, biochemical, luminescence, uHTS hits (AID 463120). The format is functional.
Series [16] addresses T3, Intestinal-type alkaline phosphatase. The experiment in a line: human IAP activators, dose response, biochemical, luminescent, uHTS hits, set 2 (AID 488817).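 Note: potency of activators that raise enzyme activity.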 In kind it is functional.
In series [17] the target is T4, Alkaline phosphatase, tissue-nonspecific isozyme (Homo sapiens, UniProt P05186).
T4 sequence (P05186 whole entry): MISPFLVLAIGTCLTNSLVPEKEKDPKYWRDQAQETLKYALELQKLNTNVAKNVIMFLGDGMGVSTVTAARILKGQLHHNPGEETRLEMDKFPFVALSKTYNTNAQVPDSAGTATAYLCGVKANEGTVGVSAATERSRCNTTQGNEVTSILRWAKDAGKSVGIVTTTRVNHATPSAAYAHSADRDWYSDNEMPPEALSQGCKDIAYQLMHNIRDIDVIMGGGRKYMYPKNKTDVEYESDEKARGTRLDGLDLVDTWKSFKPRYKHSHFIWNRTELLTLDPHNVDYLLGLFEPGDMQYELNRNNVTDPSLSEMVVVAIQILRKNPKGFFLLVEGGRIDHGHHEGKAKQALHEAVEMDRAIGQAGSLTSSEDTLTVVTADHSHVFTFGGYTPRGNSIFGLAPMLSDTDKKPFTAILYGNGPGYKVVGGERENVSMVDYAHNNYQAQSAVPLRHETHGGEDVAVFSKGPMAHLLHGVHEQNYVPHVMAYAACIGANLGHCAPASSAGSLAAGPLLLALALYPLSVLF
The experiment in a line: TNAP enzyme activators, dose response, selectivity assay for human IAP activator project, biochemical, TNAP isozyme, human IAP uHTS hits (AID 488886).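 Note: potency of compounds raising TNAP activity as a selectivity check on IAP activators.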 The format is functional.

For series [18], the target named is T1, Cytochrome P450 2D6. This is another data set of the same source.
For series [19], the target named is Tumor necrosis factor (Homo sapiens, UniProt P01375). Put plainly: TNFa-triggered NF-kB activation inhibitors, SAR follow-up, cell-based, revised (AID 2337). The format is functional.
Series [20] addresses Nucleotide-binding oligomerization domain-containing protein 1 (Homo sapiens, UniProt Q9Y239). Put plainly: NOD1 signaling inhibitors, SAR follow-up, revised (AID 2333). In kind it is functional.
Series [21] deals with Lysine-specific demethylase 4C (Homo sapiens, UniProt Q9H3R0). Put plainly: GASC-1 (JMJD2C) histone demethylase inhibitors, dose response, biochemical, DELFIA europium, cherry-picked samples (AID 488835). The format is functional.
The test system of series [22] is Vero. The experiment in a line: cells. As to conditions: Chlorocebus sabaeus. In kind it is functional, cell-based.
For series [23], the system named is Vero. Put plainly: cells. As to conditions: Chlorocebus sabaeus. The format is functional.
Series [24] in a line: Shn3 3'UTR reporter inhibitors, dose response, cell-based, Clone20 osteoblasts, firefly luciferase, cherry-picked (AID 624132).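 Note: firefly luciferase luminescence from reporter carrying the Shn3 3'UTR in osteoblasts.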 The format is functional.
The nature of series [25]: HepG2 cell cytotoxicity, dose response, cytotoxicity control for Shn3 inhibitor project, CellTiter-Glo, cherry-picked (AID 624134). In kind it is functional, cell-based. On the technique in general: Cellular ATP, detected with luciferase, serves as a proxy for viable cell number.
Series [26] can be described thus: control 3'UTR Renilla luciferase suppression, dose response, counter-screen for Shn3 inhibitor project, cell-based, Clone20-Shn3RL, cherry-picked (AID 624133). The format is functional.
Series [27] addresses T5, Galanin receptor type 3 (Homo sapiens, UniProt O60755).
T5 sequence (O60755 whole entry): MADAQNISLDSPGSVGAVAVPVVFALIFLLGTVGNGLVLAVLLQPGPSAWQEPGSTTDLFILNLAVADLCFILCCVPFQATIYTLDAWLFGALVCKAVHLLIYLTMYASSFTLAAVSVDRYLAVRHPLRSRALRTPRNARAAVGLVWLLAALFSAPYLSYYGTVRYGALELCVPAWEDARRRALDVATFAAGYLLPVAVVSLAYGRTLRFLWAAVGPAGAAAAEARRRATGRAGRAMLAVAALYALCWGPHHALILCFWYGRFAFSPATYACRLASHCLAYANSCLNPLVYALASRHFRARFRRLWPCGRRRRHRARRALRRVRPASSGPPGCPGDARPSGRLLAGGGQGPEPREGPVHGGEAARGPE
The experiment in a line: Fluorescence-based cell-based primary high throughput dose response assay to identify antagonists of the Galanin Receptor 3 (GalR3). In kind it is functional.

Series [28] can be described thus: cells. In kind it is functional, cell-based. As to conditions: HEK-CNG.
Series [29] deals with Paired box protein Pax-8 (Homo sapiens, UniProt Q06710). The experiment in a line: inhibitors of PAX8-driven TPO luciferase reporter, dose response, RMG-I cells, cherry-pick (AID 687027).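 Note: luciferase reporter driven by Pax8 target thyroperoxidase promoter measured by SteadyGlo luminescence.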 In kind it is functional, cell-based. (In a reporter assay the amount or activity of a reporter protein is the signal.)
Series [30] can be described thus: NIH-3T3 fibroblast cytotoxicity, dose response, cytotoxicity control, cell-based, fluorescence, Alamar Blue, secondary assay (AID 2327).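 Note: NIH-3T3 mouse fibroblasts cultured with fluconazole at 8 µg/mL.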 In kind it is functional.
The test system of series [31] is BJ. Put plainly: cytotoxicity toward BJ-TERT fibroblasts, dose response, cell-based, RAS-independent, luminescence (AID 1933). In kind it is functional. Particulars: Homo sapiens.
Series [32] in a line: cells. In kind it is functional, cell-based.
The test system of series [33] is BJ. Put plainly: cells. In kind it is functional, cell-based. Particulars: Homo sapiens.
The nature of series [34]: C. albicans growth with fluconazole, confirmation, fluorescence, retest (AID 2467). In kind it is functional, cell-based.
Series [35] in a line: cells. The format is functional, cell-based. This is another data set of the same source.
In series [36] the test system is BJ. Put plainly: cytotoxicity toward BJ-TERT-LT-ST fibroblasts, dose response, cell-based, RAS-independent, luminescence (AID 1935).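 Note: BJ fibroblasts immortalized with TERT plus LT and ST oncogenes.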 In kind it is functional. As to conditions: Homo sapiens.
A short description of series [37]: cytotoxicity toward DRD oncogenic fibroblasts, dose response, cell-based, non-viral oncogenic, luminescence (AID 1934). Particulars: Homo sapiens. The format is functional.
Series [38] is described as follows: cytotoxicity in HEK-293T cells, dose response, cytotoxicity control for TCR NF-kB inhibitor project, luminescence, T-cell screen hits (AID 489026).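 Note: cells exposed to compound about 14 hours before the viability readout.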 In kind it is functional, cell-based.
The test system of series [39] is BJ. The experiment in a line: cytotoxicity toward Ras-transformed BJeLR fibroblasts, dose response, cell-based, alamar blue fluorescence, cherrypicked samples (AID 2631).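 Note: confirmatory dose-response assay in RAS-dependent BJ fibroblasts engineered with TERT, LT and ST, with cytotoxicity read by fluorescence.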 The format is functional. As to conditions: Homo sapiens.
In series [40] the test system is INS1. The experiment in a line: beta cell apoptosis inhibitors, cytokine rescue, dose response, luminescence, retest (AID 449756).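 Note: cell death triggered by IL-1 beta plus TNF-alpha plus IFN-gamma mixture; protective hits raise ATP signal compared with cytokine alone wells.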 The format is functional, cell-based. Particulars: Rattus norvegicus.

From ChEMBL document CHEMBL1201862, “PubChem BioAssay data set” (2004) come the findings set out here.

Activity calls are given as the source filed them. A value given as a limit tells only on which side of the number the result lay.

T3 sequence (P09923 whole entry): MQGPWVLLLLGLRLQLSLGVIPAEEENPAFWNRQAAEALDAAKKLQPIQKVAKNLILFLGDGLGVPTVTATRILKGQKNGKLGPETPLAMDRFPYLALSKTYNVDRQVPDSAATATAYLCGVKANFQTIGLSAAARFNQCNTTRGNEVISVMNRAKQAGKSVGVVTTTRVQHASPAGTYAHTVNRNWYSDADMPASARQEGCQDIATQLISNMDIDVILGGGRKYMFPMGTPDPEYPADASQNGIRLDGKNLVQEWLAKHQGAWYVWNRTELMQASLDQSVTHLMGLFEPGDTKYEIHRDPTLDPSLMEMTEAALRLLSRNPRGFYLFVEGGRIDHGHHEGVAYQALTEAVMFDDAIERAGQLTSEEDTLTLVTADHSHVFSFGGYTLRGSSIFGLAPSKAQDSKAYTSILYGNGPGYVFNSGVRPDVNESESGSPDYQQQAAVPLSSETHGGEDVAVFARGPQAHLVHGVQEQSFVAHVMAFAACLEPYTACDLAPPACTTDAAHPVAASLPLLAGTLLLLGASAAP
Sequence of Intestinal-type alkaline phosphatase (Mus musculus, UniProt P24822) (P24822 whole entry): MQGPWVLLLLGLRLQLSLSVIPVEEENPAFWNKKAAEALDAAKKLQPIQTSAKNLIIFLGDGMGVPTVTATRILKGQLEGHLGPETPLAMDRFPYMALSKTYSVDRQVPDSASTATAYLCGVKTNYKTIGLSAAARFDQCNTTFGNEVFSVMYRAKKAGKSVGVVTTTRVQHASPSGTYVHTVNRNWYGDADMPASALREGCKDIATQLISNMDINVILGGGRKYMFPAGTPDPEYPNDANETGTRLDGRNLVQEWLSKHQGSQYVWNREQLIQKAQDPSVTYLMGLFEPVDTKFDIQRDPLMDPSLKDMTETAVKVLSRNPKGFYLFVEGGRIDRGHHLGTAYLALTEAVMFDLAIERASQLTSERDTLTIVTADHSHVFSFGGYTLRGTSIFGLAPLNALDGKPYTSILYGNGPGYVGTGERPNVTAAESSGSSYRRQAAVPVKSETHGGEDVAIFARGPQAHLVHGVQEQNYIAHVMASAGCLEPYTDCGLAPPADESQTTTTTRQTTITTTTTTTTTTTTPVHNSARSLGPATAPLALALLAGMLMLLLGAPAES
T1 sequence (P10635 whole entry): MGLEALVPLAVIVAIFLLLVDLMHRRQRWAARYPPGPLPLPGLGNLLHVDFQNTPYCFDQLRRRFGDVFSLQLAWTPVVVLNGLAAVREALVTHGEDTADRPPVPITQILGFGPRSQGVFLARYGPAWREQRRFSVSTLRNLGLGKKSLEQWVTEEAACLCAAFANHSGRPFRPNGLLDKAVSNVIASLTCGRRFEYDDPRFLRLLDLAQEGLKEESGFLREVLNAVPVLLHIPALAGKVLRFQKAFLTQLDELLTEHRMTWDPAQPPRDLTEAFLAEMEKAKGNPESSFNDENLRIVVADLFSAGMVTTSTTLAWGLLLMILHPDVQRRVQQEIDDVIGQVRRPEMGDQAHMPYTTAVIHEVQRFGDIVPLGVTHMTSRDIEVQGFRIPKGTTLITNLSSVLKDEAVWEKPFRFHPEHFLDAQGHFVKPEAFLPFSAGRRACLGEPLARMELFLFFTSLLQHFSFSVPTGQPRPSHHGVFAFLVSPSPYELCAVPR
Sequence of Tumor necrosis factor (P01375 whole entry, the tested form may be a part): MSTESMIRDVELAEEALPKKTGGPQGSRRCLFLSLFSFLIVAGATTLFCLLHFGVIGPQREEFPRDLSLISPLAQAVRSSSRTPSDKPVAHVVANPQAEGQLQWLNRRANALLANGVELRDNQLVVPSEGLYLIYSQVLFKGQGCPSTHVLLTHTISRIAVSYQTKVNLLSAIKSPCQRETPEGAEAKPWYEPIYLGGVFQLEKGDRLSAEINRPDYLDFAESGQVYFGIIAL
Sequence of Paired box protein Pax-8 (Q06710 whole entry): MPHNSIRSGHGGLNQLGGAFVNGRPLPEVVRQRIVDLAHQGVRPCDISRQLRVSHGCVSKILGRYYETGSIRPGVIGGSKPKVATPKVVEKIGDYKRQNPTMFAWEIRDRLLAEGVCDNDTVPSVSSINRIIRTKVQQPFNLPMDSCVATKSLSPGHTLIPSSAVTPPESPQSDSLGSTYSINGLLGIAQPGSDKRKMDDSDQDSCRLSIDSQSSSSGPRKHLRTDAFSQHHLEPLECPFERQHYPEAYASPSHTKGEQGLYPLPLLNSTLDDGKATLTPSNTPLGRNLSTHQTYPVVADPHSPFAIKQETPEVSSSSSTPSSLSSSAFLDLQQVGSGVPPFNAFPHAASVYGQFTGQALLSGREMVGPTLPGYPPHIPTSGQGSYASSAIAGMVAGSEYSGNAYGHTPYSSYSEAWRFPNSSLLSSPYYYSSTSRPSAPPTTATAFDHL
Sequence of Cytochrome P450 2C9 (P11712 whole entry): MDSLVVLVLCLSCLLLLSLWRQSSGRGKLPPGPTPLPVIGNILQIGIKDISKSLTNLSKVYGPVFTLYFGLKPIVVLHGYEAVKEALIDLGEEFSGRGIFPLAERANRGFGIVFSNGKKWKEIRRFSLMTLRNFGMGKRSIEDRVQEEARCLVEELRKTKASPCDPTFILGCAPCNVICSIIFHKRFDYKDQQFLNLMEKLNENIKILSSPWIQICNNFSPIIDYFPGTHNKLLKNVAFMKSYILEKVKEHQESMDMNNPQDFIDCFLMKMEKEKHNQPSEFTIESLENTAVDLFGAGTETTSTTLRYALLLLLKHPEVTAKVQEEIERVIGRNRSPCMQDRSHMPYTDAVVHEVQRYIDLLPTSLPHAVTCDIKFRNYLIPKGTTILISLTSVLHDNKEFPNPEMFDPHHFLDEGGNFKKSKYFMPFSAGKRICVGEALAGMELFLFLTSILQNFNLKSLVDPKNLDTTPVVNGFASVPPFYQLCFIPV
Sequence of Lysine-specific demethylase 4C (Q9H3R0 whole entry): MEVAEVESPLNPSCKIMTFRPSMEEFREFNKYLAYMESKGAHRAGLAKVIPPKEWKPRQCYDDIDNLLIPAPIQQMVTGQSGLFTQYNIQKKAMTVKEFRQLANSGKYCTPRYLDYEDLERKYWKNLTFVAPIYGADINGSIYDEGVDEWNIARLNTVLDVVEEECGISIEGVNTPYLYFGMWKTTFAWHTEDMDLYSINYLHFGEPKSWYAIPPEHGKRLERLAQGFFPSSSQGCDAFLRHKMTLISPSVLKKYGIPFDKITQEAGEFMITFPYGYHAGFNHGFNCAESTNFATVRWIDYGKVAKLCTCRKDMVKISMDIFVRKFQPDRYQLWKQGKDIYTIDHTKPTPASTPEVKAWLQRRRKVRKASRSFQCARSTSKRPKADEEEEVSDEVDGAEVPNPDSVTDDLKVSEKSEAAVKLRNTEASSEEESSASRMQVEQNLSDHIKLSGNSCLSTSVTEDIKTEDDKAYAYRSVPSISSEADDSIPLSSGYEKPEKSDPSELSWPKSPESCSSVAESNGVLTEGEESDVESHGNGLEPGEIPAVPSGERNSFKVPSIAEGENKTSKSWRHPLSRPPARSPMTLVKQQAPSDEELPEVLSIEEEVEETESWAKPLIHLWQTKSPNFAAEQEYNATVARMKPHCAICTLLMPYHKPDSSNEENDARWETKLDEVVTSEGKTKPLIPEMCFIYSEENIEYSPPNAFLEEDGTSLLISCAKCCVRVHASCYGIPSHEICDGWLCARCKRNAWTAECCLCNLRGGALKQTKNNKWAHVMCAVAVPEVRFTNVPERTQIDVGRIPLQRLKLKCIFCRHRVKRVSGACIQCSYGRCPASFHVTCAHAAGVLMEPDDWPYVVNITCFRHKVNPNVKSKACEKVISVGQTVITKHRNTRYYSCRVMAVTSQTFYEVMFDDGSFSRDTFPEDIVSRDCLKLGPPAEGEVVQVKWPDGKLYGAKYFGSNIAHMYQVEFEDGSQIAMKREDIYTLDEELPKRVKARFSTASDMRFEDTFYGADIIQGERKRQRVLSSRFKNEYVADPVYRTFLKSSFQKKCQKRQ
Sequence of Nucleotide-binding oligomerization domain-containing protein 1 (Q9Y239 whole entry, the tested form may be a part): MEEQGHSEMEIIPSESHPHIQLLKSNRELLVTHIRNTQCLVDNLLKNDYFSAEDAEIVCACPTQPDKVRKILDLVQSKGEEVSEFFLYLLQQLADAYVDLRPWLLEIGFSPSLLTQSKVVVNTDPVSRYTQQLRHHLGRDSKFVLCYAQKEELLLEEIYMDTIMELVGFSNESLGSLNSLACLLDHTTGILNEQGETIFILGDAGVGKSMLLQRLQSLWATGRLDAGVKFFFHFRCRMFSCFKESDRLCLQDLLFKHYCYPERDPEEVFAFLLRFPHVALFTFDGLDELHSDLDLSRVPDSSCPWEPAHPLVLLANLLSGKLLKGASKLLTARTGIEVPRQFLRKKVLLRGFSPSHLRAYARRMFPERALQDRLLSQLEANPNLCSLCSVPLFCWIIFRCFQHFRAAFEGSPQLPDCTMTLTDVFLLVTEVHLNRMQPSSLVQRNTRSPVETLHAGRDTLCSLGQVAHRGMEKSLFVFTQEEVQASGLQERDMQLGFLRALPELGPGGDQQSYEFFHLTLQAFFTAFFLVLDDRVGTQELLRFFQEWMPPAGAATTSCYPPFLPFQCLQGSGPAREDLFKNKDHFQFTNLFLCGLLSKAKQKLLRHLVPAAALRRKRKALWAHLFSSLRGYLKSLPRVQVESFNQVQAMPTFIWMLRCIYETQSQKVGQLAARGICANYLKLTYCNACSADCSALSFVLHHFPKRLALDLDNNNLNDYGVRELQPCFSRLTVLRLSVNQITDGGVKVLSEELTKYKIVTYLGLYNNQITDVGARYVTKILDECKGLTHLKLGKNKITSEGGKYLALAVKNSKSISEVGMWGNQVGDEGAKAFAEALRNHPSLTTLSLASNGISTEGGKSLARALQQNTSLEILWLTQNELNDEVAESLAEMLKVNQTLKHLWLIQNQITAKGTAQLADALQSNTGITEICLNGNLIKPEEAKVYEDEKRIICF

On to `C=CCn1c(SC(C)C(=O)NCc2ccc3c(c2)OCO3)nc2scc(-c3ccccc3)c2c1=O` (stereo not given), for which, in series [1], the AC50 (as a rule, the concentration giving half of the maximal activity seen) was 3.16 µM (inconclusive). Besides, the EC50 in series [2] and in series [3] was > 59.7 µM (inactive) throughout.

For `C=C[C@H]1CN2CC[C@@H]1C[C@H]2[C@@H](O)c1ccnc2ccc(OC)cc12.Cl.O`, the AC50 result in [4] and in [5] was “inactive” throughout.

Take `C=CCc1cc(Cl)ccc1OCCOCCNC(C)CC` (stereo not given): the AC50 is 21.5 µM (active) in [6] and 34.5 µM (active) in series [7].

In the case of `Cc1ccc(CSc2nc(O)c(C#N)c(-c3ccccc3)n2)cc1`, the EC50 (as a rule, the concentration giving half of the maximal effect) in series [8] was 9.39 µM (active). The IC50 (in general, the concentration that gives 50% inhibition) in [9] is > 20 µM (inactive); in series [10], > 20 µM (inactive); in series [11], 12.9 µM (inactive); in [12], > 20 µM (inactive); in series [13] it was > 20 µM (inactive).

Consider `COc1cc(NC(=O)c2ccnc(N)c2)cc(C(=O)Nc2cccc(C(F)(F)F)c2)c1`, for which the figures for the AC50 in series [6] and in [7] were 17.4 µM (active) and 39.5 µM (active), respectively.

On to `Cc1ccsc1C(=O)NNC(=S)NC1CCCCC1`, for which the IC50 in [14] was 56.7 µM (active). The EC50 in series [15] was 10.3 µM (active); in series [16] it was 15 µM (active); in series [17] it was 13.9 µM (active).

Regarding `COc1cccc2c1C(=O)c1c(O)c3c(c(O)c1C2=O)C[C@](O)(C(C)=O)C[C@H]3O[C@@H]1C[C@H](N)[C@H](O)[C@H](C)O1`, the AC50 entry in series [18] and in [4] was “inactive” throughout.

Regarding `CSc1ccc(NC(=O)c2ccc(CN3CCc4ccccc4C3)cc2)cc1`, the figures for the IC50 in [19], in series [20] and in series [13] were 0.372 µM (active), 0.243 µM (active) and 7.86 µM (active), respectively.

Take `CCN(C[C@H]1N[C@@](CC)(C(=O)OC)[C@H]2C(=O)N(Cc3ccccc3)C(=O)[C@@H]12)S(=O)(=O)c1ccc(C(C)(C)C)cc1`: the AC50 in series [21] was 42.6 µM (active).

Regarding `CCCCn1c(-c2nonc2NC(=O)c2ccccc2Cl)nc2ccccc21`, the IC50 in [22] was 0.73 µM (active). Besides, in [23], the CC50 – broadly, the concentration giving 50% cytotoxicity – is 11.8 µM (active). The AC50 in series [24] is 1.39 µM (active); in [25], > 70 µM (inactive); in series [26], 1.11 µM (active).

For `C[C@]12CC[C@H]3[C@@H](CC[C@@]4(O)C[C@@H](O)CC[C@]34C=O)[C@]1(O)CC[C@@H]2C1=CC(=O)OC1`, the IC50 in [22] was < 0.05 µM (active); in [27] it was > 29.9 µM (inactive). Further, the CC50 in [23] was 1.65 µM (active). In addition, the EC50 in [28] is > 29.9 µM (inactive). Also, the AC50 in series [29] is 3.39 µM (active).

On to `CCN(CC)c1ccc(/C=N/NC(=O)c2nnn(-c3nonc3N)c2C(C)C)c(O)c1`, for which the EC50 in series [30] was 4 µM (active); in [31], 7.4 µM (inconclusive); in series [32] it was 5.38 µM (active); in series [33], 2.83 µM (active); in series [34], 0.401 µM (active); in [35], > 350 µM (not active). Besides, the EC50 was 6.05 µM (inconclusive) in series [36]; 8.09 µM (inconclusive) in series [37]; 10.5 µM (active) in series [15]; 20.6 µM (active) in series [16]; 19 µM (active) in [17]; 0.199 µM (active) in series [39]. The IC50 in series [14] is 78 µM (active); in series [38] it was > 80 µM (inactive). In addition, the AC50 in series [40] was < 0.195 µM (active).
